# Test results reported in PubChem BioAssay AID330 (DTP/NCI, 2004).
# Values joined by “and” are separate entries in the source; they are usually repeats but may differ in a detail not shown here. Identical values can stand only once. Toxic doses and inconclusive results are not listed. Square brackets hold non-standard residues; d marks the D form. Peptide text beside a SMILES is read from it. * marks the point of attachment. ξ: configuration not given here. Ac5c = NC1(C(=O)O)CCCC1; Cbz = O=C(OCc1ccccc1)*; OBn = c1ccc(CO*)cc1; Bn = c1ccc(C*)cc1; ξC = NC(CS)C(=O)O; ξS = NC(CO)C(=O)O
# Test system: P388 leukemia ip, CD2F1 mice, survival T/C
# Experiment: NCI In Vivo Anticancer Drug Screen. Data for tumor model P388 Leukemia (intraperitoneal) in CD2F1 (CDF1) mice
# Conditions: endpoint: median survival time, higher = longer survival
# Procedure, shortened: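 Mice carrying the transplanted tumor received test compound or vehicle. Survival was recorded in each group, and the value is the treated-group measurement divided by that of the vehicle-treated control group.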
# [1] = dose: 50.0 mg/kg/injection, schedule: Q01DX005 (ip), vehicle: saline with Tween-80
# [2] = dose: 50.0 mg/kg/injection, schedule: Q01DX005 (ip), vehicle: saline
# [3] = dose: 100.0 mg/kg/injection, schedule: Q01DX005 (ip), vehicle: saline
# [4] = dose: 200.0 mg/kg/injection, schedule: Q01DX005 (ip), vehicle: saline
# [5] = dose: 25.0 mg/kg/injection, schedule: Q01DX009 (ip), vehicle: saline with Tween-80
# [6] = dose: 50.0 mg/kg/injection, schedule: Q01DX009 (ip), vehicle: saline with Tween-80
# [7] = dose: 100.0 mg/kg/injection, schedule: Q01DX005 (ip), vehicle: saline with Tween-80
# [8] = dose: 200.0 mg/kg/injection, schedule: Q01DX005 (ip), vehicle: saline with Tween-80
# [9] = dose: 100.0 mg/kg/injection, schedule: Q04DX003 (ip), vehicle: saline with Tween-80
# [10] = dose: 200.0 mg/kg/injection, schedule: Q04DX003 (ip), vehicle: saline with Tween-80
# [11] = dose: 400.0 mg/kg/injection, schedule: Q04DX003 (ip), vehicle: saline with Tween-80
# [12] = dose: 50.0 mg/kg/injection, schedule: Q01DX009 (ip), vehicle: Klucel (hydroxypropylcellulose) (HPC)
# [13] = dose: 100.0 mg/kg/injection, schedule: Q01DX009 (ip), vehicle: Klucel (hydroxypropylcellulose) (HPC)
# [14] = dose: 200.0 mg/kg/injection, schedule: Q01DX009 (ip), vehicle: Klucel (hydroxypropylcellulose) (HPC)
# [15] = dose: 100.0 mg/kg/injection, schedule: Q01DX009 (ip), vehicle: saline with Tween-80
# [16] = dose: 60.0 mg/kg/injection, schedule: Q01DX005 (ip), vehicle: saline with Tween-80
# [17] = dose: 120.0 mg/kg/injection, schedule: Q01DX005 (ip), vehicle: saline with Tween-80
# [18] = dose: 240.0 mg/kg/injection, schedule: Q01DX005 (ip), vehicle: saline with Tween-80
# [19] = dose: 25.0 mg/kg/injection, schedule: Q01DX005 (ip), vehicle: Klucel (hydroxypropylcellulose) (HPC)
# [20] = dose: 50.0 mg/kg/injection, schedule: Q01DX005 (ip), vehicle: Klucel (hydroxypropylcellulose) (HPC)
# [21] = dose: 60.0 mg/kg/injection, schedule: Q01DX005 (ip), vehicle: Klucel (hydroxypropylcellulose) (HPC)
structure (smiles),measurement,setting,value
Nc1c(C(=O)O)ccc2c1C(=O)c1ccccc1C2=O,T/C,"dose: 6.25 mg/kg/injection, schedule: Q01DX005 (ip), vehicle: saline with Tween-80",96 % of control
same,T/C,"dose: 12.5 mg/kg/injection, schedule: Q01DX005 (ip), vehicle: saline with Tween-80",96 % of control
same,T/C,"dose: 25.0 mg/kg/injection, schedule: Q01DX005 (ip), vehicle: saline with Tween-80",98 % of control
same,T/C,[1],103 % of control
CCOC(=O)C(CO)NC(=O)C1(NC(C)=O)CCCC1 (stereo not drawn) (Ac-[Ac5c]-[ξS]-OEt),T/C,[2],100 % of control
same,T/C,[3],100 % of control
same,T/C,[4],100 % of control
N#C/C(N)=C(/N)C#N,T/C,"dose: 12.5 mg/kg/injection, schedule: Q01DX009 (ip), vehicle: saline with Tween-80",100 % of control and 107 % of control
same,T/C,[5],102 % of control and 111 % of control
same,T/C,[6],104 % of control and 117 % of control and 124 % of control
CCn1c2ccc([N+](=O)[O-])cc2c2c([N+](=O)[O-])c(NC(C)=O)ccc21,T/C,[1],93 % of control
same,T/C,[7],95 % of control
same,T/C,[8],92 % of control
COc1ccc(NC(=O)C(c2ccccc2)c2ccccc2)cc1,T/C,[9],90 % of control
same,T/C,[10],95 % of control
same,T/C,[11],100 % of control
COC(=O)CC(C(=O)OC)C(C(=O)OC)C(C(=O)OC)C(CC(=O)OC)C(=O)OC (stereo not drawn),T/C,"dose: 100.0 mg/kg/injection, schedule: Q04DX002 (ip), vehicle: saline with Tween-80",98 % of control
same,T/C,"dose: 200.0 mg/kg/injection, schedule: Q04DX002 (ip), vehicle: saline with Tween-80",104 % of control
same,T/C,"dose: 400.0 mg/kg/injection, schedule: Q04DX002 (ip), vehicle: saline with Tween-80",102 % of control
O=C(O)CNC(=O)C(Cl)Cl,T/C,[2],100 % of control
same,T/C,[3],100 % of control
same,T/C,[4],90 % of control
FC(F)(F)C1=NNC(c2ccc3ccccc3c2)=NN1,T/C,[12],95 % of control
same,T/C,[13],90 % of control
same,T/C,[14],92 % of control
CSC1C(=O)Nc2ccc([N+](=O)[O-])cc21 (stereo not drawn),T/C,[5],96 % of control
same,T/C,[6],105 % of control
same,T/C,[15],113 % of control
COCCCn1cnn2c(=O)c3ccccc3nc2c1=O,T/C,[16],103 % of control
same,T/C,[17],99 % of control
same,T/C,[18],100 % of control
CCOC(=O)CC(Cc1cc(OC)ccc1OC)(C(C)=O)C(C)=O,T/C,"dose: 25.0 mg/kg/injection, schedule: Q01DX009 (ip), vehicle: other",100 % of control
same,T/C,"dose: 50.0 mg/kg/injection, schedule: Q01DX009 (ip), vehicle: other",100 % of control
same,T/C,"dose: 100.0 mg/kg/injection, schedule: Q01DX009 (ip), vehicle: other",100 % of control
same,T/C,"dose: 200.0 mg/kg/injection, schedule: Q01DX009 (ip), vehicle: other",98 % of control
same,T/C,"dose: 400.0 mg/kg/injection, schedule: Q01DX009 (ip), vehicle: other",100 % of control
CC1(C)CC(O)(Cc2ccccc2)C(=O)c2ccccc21 (stereo not drawn),T/C,"dose: 25.0 mg/kg/injection, schedule: Q01DX009 (ip), vehicle: Klucel (hydroxypropylcellulose) (HPC)",96 % of control
same,T/C,[12],95 % of control
same,T/C,[13],98 % of control
same,T/C,[14],98 % of control
same,T/C,"dose: 400.0 mg/kg/injection, schedule: Q01DX009 (ip), vehicle: Klucel (hydroxypropylcellulose) (HPC)",86 % of control
COCOc1c(OC)c(C2(O)C(=O)N(C)c3ccccc32)c(OCOC)c(OC)c1C1(O)C(=O)N(C)c2ccccc21 (stereo not drawn),T/C,[16],100 % of control
same,T/C,[17],89 % of control
same,T/C,[18],88 % of control
CC1=N[C@@H](C(=O)NCC(N)=O)Cc2c1[nH]c1ccccc21,T/C,[16],98 % of control
same,T/C,[17],93 % of control
same,T/C,[18],93 % of control
COc1cc(C)cc(OC)c1,T/C,[19],101 % of control
same,T/C,[20],100 % of control
same,T/C,"dose: 100.0 mg/kg/injection, schedule: Q01DX005 (ip), vehicle: Klucel (hydroxypropylcellulose) (HPC)",100 % of control
same,T/C,"dose: 200.0 mg/kg/injection, schedule: Q01DX005 (ip), vehicle: Klucel (hydroxypropylcellulose) (HPC)",110 % of control
CCOC(=O)c1oc2ccccc2c1CN(CCO)CCO,T/C,[1],98 % of control
same,T/C,[7],100 % of control
same,T/C,[8],105 % of control
C=C(C)C1CC2(C)C(C)C(OC(=O)/C(C)=C/C)CCC2C(OC(=O)C=C(C)C)C1=O (stereo not drawn),T/C,"dose: 75.0 mg/kg/injection, schedule: Q04DX002 (ip), vehicle: Klucel (hydroxypropylcellulose) (HPC)",99 % of control
same,T/C,"dose: 150.0 mg/kg/injection, schedule: Q04DX002 (ip), vehicle: Klucel (hydroxypropylcellulose) (HPC)",98 % of control
same,T/C,"dose: 300.0 mg/kg/injection, schedule: Q04DX002 (ip), vehicle: Klucel (hydroxypropylcellulose) (HPC)",106 % of control
CCN(CC)c1ccc2cc3ccc(=[N+](CC)CC)cc-3oc2c1,T/C,"dose: 1.0 mg/kg/injection, schedule: Q01DX009 (ip), vehicle: saline",109 % of control
Cc1cc[n+](C2C(=O)c3ccccc3C(=O)C2Nc2cc(Cl)ccc2Cl)cc1 (stereo not drawn),T/C,[16],106 % of control
same,T/C,[17],108 % of control
same,T/C,[18],105 % of control
CCN(CC)CC(C)(C)C(=O)/C=C/c1ccc(/C=C/C(=O)C(C)(C)CN(CC)CC)cc1,T/C,"dose: 7.5 mg/kg/injection, schedule: Q01DX005 (ip), vehicle: saline",115 % of control and 124 % of control
O=C(CNC(=O)C(CSCc1ccccc1)NC(=O)OCc1ccccc1)NCC(=O)OCc1ccccc1 (stereo not drawn) (Cbz-[ξC](Bn)-Gly-Gly-OBn),T/C,"dose: 12.5 mg/kg/injection, schedule: Q01DX005 (ip), vehicle: Klucel (hydroxypropylcellulose) (HPC)",102 % of control
same,T/C,[19],95 % of control
same,T/C,[20],102 % of control
OCC(O)Cn1cnc2c(NO)ncnc21 (stereo not drawn),T/C,[21],101 % of control
same,T/C,"dose: 120.0 mg/kg/injection, schedule: Q01DX005 (ip), vehicle: Klucel (hydroxypropylcellulose) (HPC)",95 % of control
same,T/C,"dose: 240.0 mg/kg/injection, schedule: Q01DX005 (ip), vehicle: Klucel (hydroxypropylcellulose) (HPC)",100 % of control
CC(C)COCSCC(NC(=O)CNC(=O)C(Cc1ccccc1)NC(=O)CNC(=O)C(CSC(c1ccccc1)(c1ccccc1)c1ccccc1)NC(c1ccccc1)(c1ccccc1)c1ccccc1)C(=O)O (stereo not drawn),T/C,"dose: 15.0 mg/kg/injection, schedule: Q01DX005 (ip), vehicle: Klucel (hydroxypropylcellulose) (HPC)",97 % of control
same,T/C,"dose: 30.0 mg/kg/injection, schedule: Q01DX005 (ip), vehicle: Klucel (hydroxypropylcellulose) (HPC)",96 % of control
same,T/C,[21],88 % of control and 94 % of control
CN(C)CCSC(=O)N1c2ccccc2C(C)(C)c2ccccc21,T/C,"dose: 50.0 mg/kg/injection, schedule: Q01DX009 (ip), vehicle: saline",102 % of control
same,T/C,"dose: 100.0 mg/kg/injection, schedule: Q01DX009 (ip), vehicle: saline",103 % of control
CCN1c2ccccc2S(=O)(=O)n2c(/C=C/c3ccc(OC)cc3)nnc21,T/C,"dose: 100.0 mg/kg/injection, schedule: Q01DX001 (ip), vehicle: saline with Tween-80",90 % of control
same,T/C,"dose: 200.0 mg/kg/injection, schedule: Q01DX001 (ip), vehicle: saline with Tween-80",88 % of control
O=C(O)c1ccc2cc3ccccc3cc2c1,T/C,[15],99 % of control
same,T/C,"dose: 200.0 mg/kg/injection, schedule: Q01DX009 (ip), vehicle: saline with Tween-80",91 % of control
COC(=O)C1CC(c2ccccc2)N(c2ccccc2)O1 (stereo not drawn) (tested in a mixture with another compound),T/C,[9],95 % of control
same,T/C,[10],96 % of control
same,T/C,[11],94 % of control
C=CCN=C([S-])Nc1cccc(C(=O)O)c1.[Au+].[Na+],T/C,"dose: 60.0 mg/kg/injection, schedule: Q01DX005 (ip), vehicle: saline",106 % of control
same,T/C,"dose: 120.0 mg/kg/injection, schedule: Q01DX005 (ip), vehicle: saline",106 % of control
same,T/C,"dose: 240.0 mg/kg/injection, schedule: Q01DX005 (ip), vehicle: saline",108 % of control
